In PMC3112458, “Marked increase in etravirine and saquinavir plasma concentrations during atovaquone/proguanil prophylaxis” (Malaria Journal, 2011):
Where two headings read alike, the source gives them in different places.

Legend:
[1] = design: method as in PMID 17297027; settings: cited from earlier work
[2] = design: method as in PMID 17297027; settings: cited from earlier work; remark: listed apart in the source
[3] = design: method as in PMID 20299957; settings: cited from earlier work
[4] = 12 hour-PK of anti-retrovirals before and at day 20 of atovaquone/proguanil prophylaxis (HPLC-UV, plasma); assay type: in vivo, human; settings: for Δ AUC0-12h (during prophylaxis AUC minus pre-prophylaxis AUC): plasma, one HIV patient, day 20 of atovaquone/proguanil 250/100 mg daily vs before prophylaxis
Procedure: In September 2009, the patient planned to spend a two-week holiday in Kenya. […] Standard malaria prophylaxis with atovaquone/proguanil fixed-dose combination (250/100 mg) was prescribed: one tablet daily starting two days before the journey and ending the treatment seven days after return to Italy. A 12 hour-PK of anti-retrovirals was performed before starting prophylaxis with atovaquone/proguanil (Figure 1). The samples were collected in fasting status following this order: the first sample 12 hours after the last dose of anti-retrovirals (pre-dose); the second sample one hour after breakfast and anti-retrovirals consumption; the following samples at 2, 4, 6 and 12 hours post anti-retrovirals' intake. The second PK for the determination of anti-retrovirals' plasma concentrations during atovaquone/proguanil prophylaxis was collected at day 20 on prophylaxis with the same timing plan (Figure 1). In order to avoid any food interference with the PK results, the same diet was administered in both the PK sampling days.

[5] = system: CYP3A; design: method as in PMID 19725591; settings: cited from earlier work
[6] = system: CYP2C9, 2C19 and P-glycoprotein; design: method as in PMID 19725591; settings: cited from earlier work
[7] = system: P450 system; design: method as in PMID 9530286, PMID 9835508; settings: cited from earlier work
[8] = system: P-glycoprotein and MRP1; design: method as in PMID 9530286, PMID 9835508; settings: cited from earlier work

O=C1C(O)=C([C@H]2CC[C@H](c3ccc(Cl)cc3)CC2)C(=O)c2ccccc21 [atovaquone]
elimination half-life ([1]; adults): 48 to 72 h | drug excreted unchanged in the faeces [1]: 94% | protein-bound [2]: > 99% | geometric mean ratio (95% confidence interval) of AUC of atovaquone ([3]; patients on atazanavir/ritonavir compared with healthy volunteers): 0.54 (0.35-0.83) | geometric mean ratio (95% confidence interval) of AUC of atovaquone ([3]; patients on efavirenz compared with healthy volunteers): 0.25 (0.16-0.38) | geometric mean ratio (95% confidence interval) of AUC of atovaquone ([3]; patients on lopinavir/ritonavir compared with healthy volunteers): 0.26 (0.17-0.41)

Cc1cc(C#N)cc(C)c1Oc1nc(Nc2ccc(C#N)cc2)nc(N)c1Br [etravirine]
Δ AUC0-12h (during prophylaxis AUC minus pre-prophylaxis AUC) [4]: +55% | induction of CYP3A [5]: inducer | inhibition of CYP2C9, 2C19 and P-glycoprotein [6]: mild inhibitor

[H]/N=C(\N/C(=N/[H])Nc1ccc(Cl)cc1)NC(C)C [proguanil]
absolute bioavailability [1]: ≤ 60% | elimination half-life [1]: 12 to 21 h | time to peak plasma concentrations [1]: 2 to 4 h | protein-bound [2]: 75% | plasma concentrations lower ([3]; patients on efavirenz, lopinavir/ritonavir or atazanavir/ritonavir compared with healthy volunteers): 38-43%

Cc1nnc(C(=O)NC(C)(C)c2nc(C(=O)NCc3ccc(F)cc3)c(O)c(=O)n2C)o1 [raltegravir]
Tmax and Cmax in post-prophylaxis versus pre-prophylaxis ([4]; PK profiles, day 20 of atovaquone/proguanil prophylaxis): earlier | Δ AUC0-12h (during prophylaxis AUC minus pre-prophylaxis AUC) [4]: -23%

CC(C)(C)NC(=O)[C@@H]1C[C@@H]2CCCC[C@@H]2CN1C[C@@H](O)[C@H](Cc1ccccc1)NC(=O)[C@H](CC(N)=O)NC(=O)c1ccc2ccccc2n1 [saquinavir]
Δ AUC0-12h (during prophylaxis AUC minus pre-prophylaxis AUC) [4]: +274% | induction or inhibition of P450 system [7]: neither an inducer nor an inhibitor | interaction with P-glycoprotein and MRP1 [8]: substrate and inhibitor
